# Data taken from patent US20080050319A1, “Benzylidene-Alpha-Dicarbonyl Compounds as Novel Uv Absorbers” (SYMRISE GMBH & CO. KG, priority 2004, published 2008).
# Key:
# Type in all cases: physicochemical
# [1] = Photostability test with Suntester, HPLC analysis of UV filter mixtures
# Experimental: Photostability tests were carried out with a Suntester from Heräus. The irradiation intensity in these was 80 W/m^2, based on the UV range of 290-400 nm. The irradiation time was 4 h in total, the photodegradation of the UV filters being measured by HPLC analyses after an irradiation time of 2 and 4 h. The irradiations of the UV filter mixtures were carried out in an isopropyl myristate solution. The percentage values relate to the value measured without irradiation (decrease in the concentration).
# [2] = Solubility in cosmetic oils; details: per cent by weight
# Excerpt: Examples of Solubility (In Per Cent By Weight)
# (data in per cent by weight)
# [3] = UV absorption properties (extinction); set-up: unit not given here
# Excerpt: EXAMPLES FOR THE PREPARATION AND THE ABSORPTION PROPERTIES
# [4] = 2 h, Experiment 1: 3% OMC + 1% DMDBM + 2% A1 in isopropyl myristate
# [5] = 2 h, Experiment 2: 3% OMC + 1% DMDBM + 2% A2 in isopropyl myristate
# [6] = 2 h, Experiment 3: 3% OMC + 1% DMDBM + 2% A3 in isopropyl myristate
# [7] = 2 h, Experiment 4: 3% OMC + 1% DMDBM + 2% B1 in isopropyl myristate
# [8] = 2 h, Experiment 5: 3% OMC + 1% DMDBM + 2% B2 in isopropyl myristate
# [9] = 2 h, Experiment 6: 3% OMC + 1% DMDBM + 2% B3 in isopropyl myristate
# [10] = 2 h irradiation, 80 W/m2, reference mixture 3% OMC + 1% DMDBM in isopropyl myristate
# [11] = 4 h, Experiment 1: 3% OMC + 1% DMDBM + 2% A1 in isopropyl myristate
# [12] = 4 h, Experiment 2: 3% OMC + 1% DMDBM + 2% A2 in isopropyl myristate
# [13] = 4 h, Experiment 3: 3% OMC + 1% DMDBM + 2% A3 in isopropyl myristate
# [14] = 4 h, Experiment 4: 3% OMC + 1% DMDBM + 2% B1 in isopropyl myristate
# [15] = 4 h, Experiment 5: 3% OMC + 1% DMDBM + 2% B2 in isopropyl myristate
# [16] = 4 h, Experiment 6: 3% OMC + 1% DMDBM + 2% B3 in isopropyl myristate
# [17] = 4 h irradiation, 80 W/m2, reference mixture 3% OMC + 1% DMDBM in isopropyl myristate
compound,measurement,setting,value
"COc1ccc(C(=O)CC(=O)c2ccc(C(C)(C)C)cc2)cc1 [DMDBM, 4-dimethylethyl-4′-methoxydibenzoylmethane]",photodegradation (decrease in the concentration),[1]; [4],24%
same,photodegradation (decrease in the concentration),[1]; [5],20%
same,photodegradation (decrease in the concentration),[1]; [6],20%
same,photodegradation (decrease in the concentration),[1]; [7],27%
same,photodegradation (decrease in the concentration),[1]; [8],27%
same,photodegradation (decrease in the concentration),[1]; [9],27%
same,photodegradation (decrease in the concentration),[1]; [10],67%
same,photodegradation (decrease in the concentration),[1]; [11],38%
same,photodegradation (decrease in the concentration),[1]; [12],28%
same,photodegradation (decrease in the concentration),[1]; [13],28%
same,photodegradation (decrease in the concentration),[1]; [14],48%
same,photodegradation (decrease in the concentration),[1]; [15],60%
same,photodegradation (decrease in the concentration),[1]; [16],52%
same,photodegradation (decrease in the concentration),[1]; [17],87%
COc1ccc(/C=C(/C(=O)OC(C)C)C(=O)c2ccccc2)cc1 [Example 1],Solubility in Isopropyl myristate,[2],>10%
same,Solubility in Miglyol -812,[2],>10%
same,Solubility in Witconol-TN,[2],>10%
same,Extinction,[3]; at 316 nm,640
CCCOC(=O)/C(=C/c1ccc(OC)cc1)C(=O)c1ccccc1 [Example 2],Solubility in Isopropyl myristate,[2],>10%
same,Solubility in Miglyol -812,[2],>10%
same,Solubility in Witconol-TN,[2],>10%
same,Extinction,[3]; at 316 nm,660
COc1ccc(/C=C(/C(=O)OCC(C)C)C(=O)c2ccccc2)cc1 [Example 3],Solubility in Isopropyl myristate,[2],>20%
same,Solubility in Miglyol -812,[2],>20%
same,Solubility in Witconol-TN,[2],>20%
same,Extinction,[3]; at 316 nm,640
CCCCOC(=O)/C(=C/c1ccc(OC)cc1)C(=O)c1ccccc1 [Example 4],photodegradation (decrease in the concentration),[1]; [4],0%
same,photodegradation (decrease in the concentration),[1]; [11],0%
same,photostability (in words),"[1]; in mixture with OMC and DMDBM, compared with the comparison measurement",outstanding photostability
same,Solubility in Isopropyl myristate,[2],>20%
same,Solubility in Miglyol -812,[2],>20%
same,Solubility in Witconol-TN,[2],>20%
same,Extinction,[3]; at 316 nm,660
COc1ccc(/C=C(/C(=O)OCCC(C)C)C(=O)c2ccccc2)cc1 [Example 5],Solubility in Isopropyl myristate,[2],>20%
same,Solubility in Miglyol -812,[2],>20%
same,Solubility in Witconol-TN,[2],>20%
same,Extinction,[3]; at 316 nm,630
CCOC(=O)/C(=C/c1ccc(OC)cc1)C(=O)C1CCCCC1 [Example 6],Extinction,[3]; at 316 nm,700
CCOC(=O)/C(=C/c1ccc(C)cc1)C(=O)c1ccccc1 [Example 7],Extinction,[3]; at 292 nm,690
COc1ccc(/C=C(/C(C)=O)C(=O)c2ccccc2)cc1 [Example 8],Extinction,"[3]; at 323 nm, pure Z isomer",816
CCOC(=O)/C(=C/c1ccc(OC)cc1)C(=O)c1ccc(C)cc1 [Example 9],Extinction,[3]; at 316 nm,660
CCOC(=O)/C(=C/c1ccc(OC)cc1)C(=O)c1ccccc1 [Example A2],photodegradation (decrease in the concentration),[1]; [6],0%
same,photodegradation (decrease in the concentration),[1]; [13],0%
COc1ccc(/C=C(/C(C)=O)C(=O)c2ccccc2)cc1 [Example A2],photodegradation (decrease in the concentration),[1]; [5],3%
same,photodegradation (decrease in the concentration),[1]; [12],3%
same,Solubility in Isopropyl myristate,[2],<10%
same,Solubility in Miglyol -812,[2],<10%
same,Solubility in Witconol-TN,[2],<10%
CCOC(=O)/C(=C/c1ccc(OC)cc1)C(=O)c1ccccc1 [Example A3],Solubility in Isopropyl myristate,[2],>20%
same,Solubility in Miglyol -812,[2],>20%
same,Solubility in Witconol-TN,[2],>20%
CCOC(=O)C(=Cc1ccc(OC)cc1)C(=O)OCC [Example B2],photodegradation (decrease in the concentration),[1]; [8],2%
same,photodegradation (decrease in the concentration),[1]; [15],7%
COc1ccc(C=C(C(C)=O)C(C)=O)cc1 [Example B3],photodegradation (decrease in the concentration),[1]; [9],0%
same,photodegradation (decrease in the concentration),[1]; [16],8%
"CCCCC(CC)COC(=O)C=Cc1ccc(OC)cc1 (stereo not drawn) [OMC, octyl methoxycinnamate]",photodegradation (decrease in the concentration),[1]; [4],12%
same,photodegradation (decrease in the concentration),[1]; [5],12%
same,photodegradation (decrease in the concentration),[1]; [6],11%
same,photodegradation (decrease in the concentration),[1]; [7],11%
same,photodegradation (decrease in the concentration),[1]; [8],15%
same,photodegradation (decrease in the concentration),[1]; [9],13%
same,photodegradation (decrease in the concentration),[1]; [10],58%
same,photodegradation (decrease in the concentration),[1]; [11],17%
same,photodegradation (decrease in the concentration),[1]; [12],17%
same,photodegradation (decrease in the concentration),[1]; [13],17%
same,photodegradation (decrease in the concentration),[1]; [14],18%
same,photodegradation (decrease in the concentration),[1]; [15],30%
same,photodegradation (decrease in the concentration),[1]; [16],25%
same,photodegradation (decrease in the concentration),[1]; [17],76%
